# From publication PMC9975495, “Unveiling the therapeutic potential of cabozantinib-loaded poly D,L-lactic-co-glycolic acid and polysarcosine nanoparticles in inducing apoptosis and cytotoxicity in human HepG2 hepatocellular carcinoma cell lines and in vivo anti-tumor activity in SCID female mice” (Frontiers in Oncology, 2023)
# What was measured:
# erythrocytes = experiment: Erythrocyte membrane integrity by lactate dehydrogenase release; assay type: cell-based, human; settings: erythrocyte suspension, 10, 50 and 100 µg/mL, 8 hours
# Experimental: Erythrocytes produce lactate dehydrogenase (LDH), which may be measured photometrically using the LDH test kit/Lactate Dehydrogenase Assay Kit (Colorimetric) (ab102526) ([50]). For the LDH investigation, blood was obtained from the neighbouring blood bank. The erythrocyte suspension was made according to the methodology described in our earlier research. In 1mL of erythrocyte solution was treated with specific amount of Cabozantinib (CNB), PLGA-PSar-encapsulated Cabozantinib nanoparticles (CNB-PLGA-PSar-NPs), and placebo (PLGA-PSar-NPs) ([51]). Positive control sample was created by diluting erythrocyte suspension with 1% Triton-X-100, whereas negative control sample was created by diluting erythrocyte suspension with normal saline solution. […] LDH was detected at 500nm after a ready-to-use LDH solution was added to the supernatant. The total of LDH was calculated using the following formula. […]
# Where, A sample stands for Cabozantinib, PLGA-PSar-encapsulated Cabozantinib nanoparticles (CNB-PLGA-PSar-NPs) incubated erythrocytes absorbance, A negative control indicates, erythrocytes absorbance of sample, which was pre-treated with normal saline solution. The A standard indicates the absorbance of erythrocytes sustention, which were pre-treated with 150/UL Lactate dehydrogenase (LDH) enzyme. […]
# [1] = test system: HePG2 cells Xenograft model; experiment: In vivo anti-tumour efficacy study, HePG2 xenograft; set-up: species or system SCID female mice; settings: 20 mg/kg i.v. once weekly, 21 days
# Experimental: The SCID female mice of 8-10 weeks old were used in the in vivo effectiveness study ([53]). SCID stands for severe combined immunodeficiency disorder. Mice were housed in individually ventilated cages with pelleted food, a 12-hour/12-hour dark-light cycle, and unrestricted access to water (supplied ad libitum) in a climate-controlled setting with a temperature range of 25°C ± 3°C. The National Institutes of Health's guidelines for the care and use of animals were followed when conducting all animal experiments, which included those at Animal House of […], India. These facilities also complied with CPCSEA (Committee for the Purpose of Control and Supervision of Experiments on Animals) regulations. Mice were subcutaneously injected with cultured HePG2 cells (5x10^6 cells) in 200μL of RPMI 1640 with 33% Corning Matrigel Basement Membrane Matrix (Sigma-Aldrich, India). […] A digital electronic calliper was used to measure the tumor's size twice a week. To assess toxicity, body weight was monitored twice weekly. Tumour volume was calculated as […]. The SCID female mice were given thiopental anaesthesia prior to being killed by cervical dislocation. Before being implanted in paraffin wax, liver tissues and tumour bulbs from the descending liver were collected and preserved overnight in 10% formalin (CH2O) with a pH 7.4 phosphate buffer solution.
# [2] = Tissue distribution studies; assay type: in vivo, SCID mice; settings: 20 mg/kg i.v. bolus, killed eight hours later
# Text: Tissue distribution studies in mice with SCID are required in anti-liver cancer activity to determine the distribution and concentration of a drug within the body after administration ([54]). This information is important for understanding how the drug is metabolized and cleared by the body, as well as for determining appropriate dosing regimens. Additionally, tissue distribution studies can help to identify any potential toxicities or side effects associated with the drug in specific organs or tissues. In the case of anti-liver cancer activity, knowing the distribution of the drug in the liver would be particularly important to ensure the drug is reaching its target site and effectively inhibiting the growth of cancer cells. The tissue distribution of a bolus dosage of 20 mg/kg i.v. Cabozantinib (CNB), CNB-PLGA-PSar-NPs was documented. The greatest concentration of CNB was found in liver parenchymal hepatocyte tissue. […] The increased affinity of CNB in the liver and pancreas enables the medication molecule to effectively treat liver cancer.
# The tissue distribution was studied by separating 18 SCID mice into three groups (each group had six mice). The drug and its Nano formulations were administered intravenously (i.v.) at a bolus dose of 20 mg/kg. Groups of mice were given a dosage and then killed eight hours later. […] The samples were analysed using RP-UHPLC (Dionex Ultimate, 3000). […]
# [3] = Pharmacokinetic study, plasma by RP-HPLC; assay type: in vivo, Male Albino Wister rats; settings: rats, 20 mg/kg intravenous
# Experimental: 06 Male Albino Wister rats (200 to 250 g) are separated into two groups (n=3) for the purpose of conducting pharmacokinetic studies ([55]). For up to 72 hours, a comparative plasma concentration-time profile of Cabozantinib (CNB), CNB-PLGA-PSar-NPs was analysed. […] Using the tail vein of rats, 500µL of blood samples were collected at 0, 0.5, 1, 2, 4, 8, 16, 24, 48, and 72 hours from three animals in each group. Blood samples were stored in a microcentrifuge tube and centrifuged at 7,500 rpm for 30 minutes at 25°C to separate supernatant plasma. The collected samples were analysed using the RP-HPLC system and stored at -80°C (1290 Infinity II LC System, Agilent, USA). Using kinetica 5.0 pharmacokinetics software, the obtained RP-HPLC variables were interpreted in terms of their pharmacokinetics (Thermo Fisher Scientific, Yokohama)
# Hep Par 1 = experiment: Immunohistochemistry of xenograft tumour sections; assay type: in vivo, SCID female mice; settings: five 400 µm × 400 µm zones
# Experimental: Paraffin 10µm thick sections of xenograft HePG2 cancer cell tissues embedded in liver parenchyma blocks. The blocks were […] in a 10 mM citrate buffer solution and autoclaved for 20 minutes to extract antigens. After heating the section slide blocks, they were allowed to cool for 1.5 hours at room temperature. The sectioned slides were then incubated overnight at 4°C with a primary antibody against Hepatocyte specific antigen (Hep Par 1) (91091816- SK-HEP-1, Sigma-Aldrich, Bengaluru, India). Further, section slides were incubated with enzyme-linked immunosorbent assay (ELISA) horseradish peroxidase (HRP) conjugated Goat anti-Rabbit IgG (H+L) secondary antibody (Thermo Fisher Scientific, Vadodara, Gujarat) for 1hr followed by treatment with 120µL […] (Dako). For analysing the results of Immunohistochemistry, five square zones […] were measured and averaged for the number of stained cells in each sectioned slide. Using GraphPad Prism 9 (San Diego, California) and student t-test statistical analyses were performed.
# [4] = male, Albino Wister, rat, plasma
"C0 [3, 4] [µg/mL]","Cmax [3, 4] [µg/mL]","MRT [3, 4] [h]","Vd [3, 4] [L]","clearance [3, 4] [mL/min]",t1/2 [3] [h],Molecule,LDH release / erythrocyte membrane integrity (erythrocytes),reduction in the size of the tumour compared to the vehicle control [1] [%],tissue distribution [2],Hep Par 1 labelling index (Hep Par 1)
0.215 ± 0.0163,0.241 ± 0.0342,7.45 ± 0.24,1.522 ± 0.00154,2.08,5.21 ± 0.18,"COc1cc2nccc(Oc3ccc(NC(=O)C4(C(=O)Nc5ccc(F)cc5)CC4)cc3)c2cc1OC [CNB, Cabozantinib]",would not alter the integrity of erythrocyte membranes,60.3,more widely distributed in the parenchymal hepatocyte tissue,9.22 ± 1.67
–,–,–,–,–,–,Triton X 100,exceptionally significant LDH release,–,–,–
